What all share (assay type): in vivo, BALB/c nude mice
The test system of one assay is GA0046 gastric PDX. The assay can be described thus: Gastric PDX model GA0046, tumor growth inhibition.
For another assay, the system named is GA0152 gastric PDX. Briefly: Gastric PDX model GA0152, tumor growth inhibition. The settings on record: amivantamab 10 mg/kg i.p. BIW, 5-FU 10 mg/kg i.p. QD 5 days/week, cisplatin 4 mg/kg i.p. QW, paclitaxel 15 mg/kg i.v. QW, vs isotype control. The method, then: (§1) Tumor fragments from stock tumor bearing mice were harvested and inoculated into BALB/c nude mice. Each mouse was inoculated subcutaneously in the right flank with indicated tumor fragments (2-3 mm in diameter) for tumor development.
(§2) After establishment of palpable lesions, the tumor growth was measured twice weekly. Once the mean tumor volume reached approximate 150 mm^3, animals were randomly allocated to relevant study groups with 8 mice per group. The randomization was performed according to the tumor size of each group, and the day of randomization was denoted as Day0. The treatments were started on the same day of randomization according to the dosing regimen in Table 18 where appropriate.
(§3) The study endpoints were to compare the tumor growth in each group at the end of treatments, and the subsequent tumor outgrowth after dosing stopped. The tumor size was measured twice weekly in two dimensions using a caliper, and the tumor volume was expressed in mm3 using the formula V=0.5×L×W^2, where V was tumor volume, L was tumor length (longest tumor dimension) and W was tumor width (longest tumor dimension perpendicular to L).
(§4) Tumor growth inhibition (TGI %) was an indication of anti-tumor activities, and calculated as TGI %=(1−(T−T0)/(C−C0))×100%, T and C were the mean tumor volume (TV) of treated and control groups, respectively on the day when mean TV of control group were terminated per study design.

The next assay concerns GA3121 gastric PDX. The assay can be described thus: Gastric PDX model GA3121, tumor growth inhibition. The settings on record: amivantamab 10 mg/kg i.p. BIW, paclitaxel 10 mg/kg i.v. QW, vs isotype control. The method, then:
as §1, §2
The study endpoints were to compare the tumor growth in each group at the end of treatments, and the subsequent tumor outgrowth after dosing stopped. The tumor size was measured twice weekly in two dimensions using a caliper, and the tumor volume was expressed in mm3 using the formula V=0.5×L×W^2, where V was tumor volume, L was tumor length (longest tumor dimension) and W was tumor width (longest tumor dimension perpendicular to L). […]

The next assay concerns GA0075 gastric PDX. The assay can be described thus: Gastric PDX model GA0075, tumor growth inhibition. The note with it: amivantamab 10 mg/kg i.p. BIW, 5-FU 10 mg/kg i.p. QD 5 days/week, cisplatin 4 mg/kg i.p. QW, paclitaxel 15 mg/kg i.v. QW, vs isotype control, Day28. As for the experimental part:
as §1, §2, §3, §4

For the molecule `CNC(=O)c1ccc(-c2cnc3ncc(Cc4ccc5ncccc5c4)n3n2)cc1F` [capmatinib, reference compound], the “effect on tumor growth (in words)” value with GA0046 gastric PDX (amivantamab 10 mg/kg BIW single agent, capmatinib 10 mg/kg BID) was “no effect on tumor growth”. Also, the TGI% in the assay with GA0046 gastric PDX (amivantamab 10 mg/kg i.p. BIW, capmatinib 10 mg/kg p.o. BID, vs isotype control, Day28) was found to be 5.93%.
As to `CC(=O)O[C@H]1C(=O)[C@@]2(C)[C@H]([C@H](OC(=O)c3ccccc3)[C@]3(O)C[C@H](OC(=O)[C@H](O)[C@@H](NC(=O)c4ccccc4)c4ccccc4)C(C)=C1C3(C)C)[C@]1(OC(C)=O)CO[C@@H]1C[C@@H]2O` [paclitaxel, reference compound], the TGI% is 27.29% in the assay with GA0152 gastric PDX, 27.29% with GA0152 gastric PDX (listed as paxlitaxel), −12.99% in the assay on GA3121 gastric PDX and 66.09% in the assay on GA0075 gastric PDX.

For the origin of these results see patent US20240317866A1, “Use of Anti-EGFR/Anti-Met Antibody to Treat Gastric or Esophageal Cancer” (Janssen Biotech, Inc., priority 2022, published 2024).
